In publication PMC11579541, “In vitro, in vivo, and in silico approaches for evaluating the preclinical DMPK profiles of ammoxetine, a novel chiral serotonin and norepinephrine reuptake inhibitor” (Frontiers in Pharmacology, 2024):
Read-outs that look alike come from different tables or passages of the source.

Tests used:
[1] = target: CYP 2C9 (Homo sapiens, UniProt P11712); test: Phenotyping with recombinant human CYP 2C9; assay type: in vitro ADME; design: purchased BD (Woburn, USA); settings: 5 μmol/L, 25 pmol/mL CYP, 1 h
Experimental: Ammoxetine (final concentration 5 μmol/L) was incubated with recombinant human CYP 3A4, CYP 1A2, CYP 2C9, CYP 2C19, and CYP 2D6 (final concentration 25 pmol/mL) in a 5 mmol/L K2HPO4 buffer at pH 7.4. The incubations were performed in quintuplicate. NADPH (final concentration 1 mmol/L) was added to initiate the incubation process. The mixture was then incubated at 37°C for 1 h. To stop the reaction, 200 μL of ice-cold acetonitrile/methanol (1:1, v/v) containing 500 ng/mL of L-phencynonate (IS) was added. The samples were vortexed for 2 min and centrifuged at 13,800×g and 4°C for 10 min. The supernatants obtained were analyzed using an LC-MS-MS method. To establish appropriate controls, zero-time controls and blank controls in the absence of NADPH were set up in parallel.

[2] = Tissue distribution study in rats; assay type: in vivo; settings: 20 mg/kg oral; for Tmax: read-out: time of peak concentration in tissue; for Kp: po, 20 mg/kg, read-out: AUC(0→t),tissue/AUC(0→t),blood
Experimental: A total of 24 rats were divided equally into four groups, with each group receiving a single oral gavage dose of 20 mg/kg of ammoxetine. Based on the rat PK analysis results for the 20 mg/kg dose, specific time points were selected for sampling, including before, at, and after the peak of ammoxetine plasma concentration (i.e., 0.25, 2, 6, and 24 h, respectively). At each designated time point after drug administration, the rats were euthanized, and approximately 1 mL of blood samples were collected into heparinized tubes. The heart, liver, spleen, lung, kidney, brain, intestine, stomach, testis, fat, and muscle tissues were rapidly removed after washing out the blood with ice-cold saline. The blood samples were then centrifuged at 6,000 r/min for 15 min to obtain plasma. The collected tissue samples were weighed and homogenized in distilled water to create a 10% homogenate. For further analysis, 100 μL of plasma or tissue homogenate samples were mixed with 300 μL of methanol and 100 μL of L-phencynonate (IS, 50 ng/mL). The mixture was vortexed for 1 min and then centrifuged at 13,800×g for 10 min. The resulting supernatants were used for LC-MS-MS analysis. Using the trapezoidal method, the tissue-to-blood AUC ratio ( AUC0→t,tissue/AUC0→t,blood ) was calculated based on the obtained AUC values. This ratio allowed for the comparison of differential tissue distribution of ammoxetine in rats.

[3] = Stability of ammoxetine in dog plasma (method validation); assay type: in vitro ADME
Experimental: LC-MS-MS methods were developed and validated to accurately quantify ammoxetine in rat and beagle dog plasma, as well as in rat tissues, urine, feces, and bile. The methods involved direct protein precipitation using methanol, providing a straightforward and rapid sample preparation process with high extraction recovery rates (absolute recoveries >85% in all matrices). […] The precision and accuracy of the plasma methods were evaluated through intra-day and inter-day analyses, yielding satisfactory results. Additionally, stability tests conducted in rat and beagle dog plasma met the analytical requirements for determination. Furthermore, the majority of the analytes met the necessary criteria for matrix effects when quantifying ammoxetine in biological samples. The developed methods are well-suited for determining ammoxetine concentrations in rat and beagle dog biological samples, enabling in vivo studies of this compound. They provide specific and highly sensitive quantification, facilitating investigations into the drug’s behavior in vivo. Detailed results regarding the establishment and validation of these analytical methods can be found in Supplementary Data Sheet 2.

Chain of CYP 2C9 (P11712 whole entry): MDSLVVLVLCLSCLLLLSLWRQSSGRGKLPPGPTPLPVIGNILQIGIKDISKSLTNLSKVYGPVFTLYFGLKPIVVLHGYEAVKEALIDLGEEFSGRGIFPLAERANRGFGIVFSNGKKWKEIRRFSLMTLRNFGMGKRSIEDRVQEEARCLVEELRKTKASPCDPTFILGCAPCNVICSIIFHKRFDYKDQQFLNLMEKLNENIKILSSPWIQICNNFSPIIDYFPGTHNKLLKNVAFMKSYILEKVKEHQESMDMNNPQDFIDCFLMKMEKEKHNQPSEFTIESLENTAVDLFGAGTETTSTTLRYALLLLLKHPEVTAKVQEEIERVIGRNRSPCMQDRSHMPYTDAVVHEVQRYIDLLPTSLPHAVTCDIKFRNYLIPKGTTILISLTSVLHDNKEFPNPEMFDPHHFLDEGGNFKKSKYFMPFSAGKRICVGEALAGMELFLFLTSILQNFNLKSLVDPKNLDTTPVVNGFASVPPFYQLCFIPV

Transformation ratio% [1]: 13.02±7.14% | residuary concentration of ammoxetine, Mean±SD [1]: 5.96±0.49 | Plasma exposure as share of total systemic exposure (AUC0→t,blood/AUC0→t,total) [2]: approximately 0.186% | AUC(0→t) ([2]; brain): 60,541.26 ± 19,438.07 ng/g·h | AUC(0→t) ([2]; fat): 38,592.32 ± 24,498.69 ng/g·h | AUC(0→t) ([2]; heart): 44,743.11 ± 11,086.06 ng/g·h | AUC(0→t) ([2]; intestine): 190,710.5 ± 52,982.23 ng/g·h | AUC(0→t) ([2]; kidney): 98,000.01 ± 25,400.16 ng/g·h | AUC(0→t) ([2]; liver): 208,081.20 ± 64,872.68 ng/g·h | AUC(0→t) ([2]; lung): 393,670.80 ± 31,407.40 ng/g·h | AUC(0→t) ([2]; muscle): 24,154.50 ± 6,583.59 ng/g·h | AUC(0→t) ([2]; spleen): 117,673.30 ± 31,479.36 ng/g·h | AUC(0→t) ([2]; stomach): 118,279.40 ± 37,565.21 ng/g·h | AUC(0→t) ([2]; testis): 69,347.84 ± 13,459.91 ng/g·h | Tmax ([2]; rat, heart, spleen, lung, kidney, brain, fat and muscle): 2 h | Tmax ([2]; rat, testis): 6 h | Kp ([2]; rat, brain, brain): ~23.3 | Kp ([2]; rat, fat, fat): 14.2 ± 7.84 | Kp ([2]; rat, heart, heart): 17.1 ± 3.3 | Kp ([2]; rat, intestine, intestine): 75.6 ± 28.2 | Kp ([2]; rat, kidney, kidney): 37.7 ± 8.18 | Kp ([2]; rat, liver, liver): 81.4 ± 26.8 | Kp ([2]; rat, lung, lung): 155 ± 34.7 | Kp ([2]; rat, muscle, muscle): 9.31 ± 2.29 | AUC(0-t) ([2]; rat, plasma, blood): 2620 ng·h/mL | Kp ([2]; rat, spleen, spleen): 46 ± 14.2 | Kp ([2]; rat, stomach, stomach): 48.8 ± 27.6 | Kp ([2]; rat, testis, testis): 27.3 ± 8.12 | Stability in dog plasma, Accuracy/% ([3]; 5 ng/mL, 0d (-30℃)): 91.60±7.22% | Stability in dog plasma, Accuracy/% ([3]; 5 ng/mL, 15d (-30℃)): 97.58±13.78% | Stability in dog plasma, Accuracy/% ([3]; 5 ng/mL, 25d (-30℃)): 97.61±9.77% | Stability in dog plasma, Accuracy/% ([3]; 5 ng/mL, in auto-sampler for 24h): 96.64±4.72% | Stability in dog plasma, Accuracy/% ([3]; 5 ng/mL, repeated freezing and thawing for 3 times): 96.59±4.01% | Stability in dog plasma, Accuracy/% ([3]; 5 ng/mL, room temperature for 4h): 99.00±11.24% | Stability in dog plasma, Accuracy/% ([3]; 100 ng/mL, 0d (-30℃)): 100.10 ±1.62% | Stability in dog plasma, Accuracy/% ([3]; 100 ng/mL, 15d (-30℃)): 98.63±4.19% | Stability in dog plasma, Accuracy/% ([3]; 100 ng/mL, 25d (-30℃)): 101.68 ±6.57% | Stability in dog plasma, Accuracy/% ([3]; 100 ng/mL, in auto-sampler for 24h): 99.51±7.50% | Stability in dog plasma, Accuracy/% ([3]; 100 ng/mL, repeated freezing and thawing for 3 times): 98.25±6.55% | Stability in dog plasma, Accuracy/% ([3]; 100 ng/mL, room temperature for 4h): 101.87 ±8.27% | Stability in dog plasma, Accuracy/% ([3]; 1200 ng/mL, 0d (-30℃)): 92.06±3.06% | Stability in dog plasma, Accuracy/% ([3]; 1200 ng/mL, 15d (-30℃)): 92.48±4.64% | Stability in dog plasma, Accuracy/% ([3]; 1200 ng/mL, 25d (-30℃)): 93.96±3.46% | Stability in dog plasma, Accuracy/% ([3]; 1200 ng/mL, in auto-sampler for 24h): 92.32±4.25% | Stability in dog plasma, Accuracy/% ([3]; 1200 ng/mL, repeated freezing and thawing for 3 times): 92.01±6.32% | Stability in dog plasma, Accuracy/% ([3]; 1200 ng/mL, room temperature for 4 h): 93.89±4.32%
Compound: CNCC[C@H](Oc1cccc2c1OCO2)c1cccs1 [ammoxetine]
